This passage reports IC50, CC50 and AC50 results from ChEMBL document CHEMBL1201862, “PubChem BioAssay data set” (2004).

The target in experiment [1] is Melanin-concentrating hormone receptor 1 (Homo sapiens, UniProt Q99705). The experiment is described as follows: Late-stage fluorescence-based counterscreen for antagonists of the G-protein coupled receptor 7 (GPR7): cell-based dose response assay to identify antagonists of the melanin-concentrating hormone receptor 1 (MCHR1) Set 6. In kind it is functional.
The target of experiment [2] is T1, Neuropeptides B/W receptor type 1 (Homo sapiens, UniProt P48145).
T1 sequence (P48145 whole entry): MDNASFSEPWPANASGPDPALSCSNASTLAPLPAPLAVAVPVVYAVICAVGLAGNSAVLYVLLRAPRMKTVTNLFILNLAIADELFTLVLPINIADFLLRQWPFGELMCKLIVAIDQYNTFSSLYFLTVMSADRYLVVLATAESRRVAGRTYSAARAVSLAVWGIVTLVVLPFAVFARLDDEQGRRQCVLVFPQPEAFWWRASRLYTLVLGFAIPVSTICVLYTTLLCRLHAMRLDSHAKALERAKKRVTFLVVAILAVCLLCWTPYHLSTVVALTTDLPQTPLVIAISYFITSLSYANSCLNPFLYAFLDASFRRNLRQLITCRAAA
The experiment is described as follows: human NPBW1 receptor blockade, IC50 – cell-based, fluorescence, dose response, set 6, late-stage follow-up (AID 588583). In kind it is functional.

Experiment [3] can be described thus: viability of uninfected HEp-2 cells – cell-based, HTS, cytotoxicity control for RSV inhibitor project, dose response (AID 2410). Conditions: human respiratory syncytial virus. Format: functional.
The target of experiment [4] is Melanocortin receptor 4 (Homo sapiens, UniProt P32245). The experiment is described as follows: inhibitors of MC4R cAMP signaling – cell-based, TR-FRET, biased antagonists, dose response (AID 602298).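 Further: antagonist potency against agonist-stimulated cAMP production.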 In kind it is functional. (TR-FRET usually uses a lanthanide donor and a delayed reading to cut background.)
Experiment [5] in a line: cAMP pathway inhibition in counterscreen cell line – TR-FRET cAMP detection, counter-screen for MC4R biased antagonist project, dose response (AID 602305).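 Further: U2OS cells stimulated with forskolin near its EC80 as the cAMP inducer; potency is for inhibition of forskolin-stimulated cAMP signaling.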 Format: functional, cell-based. Background: The purpose of a counterscreen is to sort out artefacts and off-target activity.
Experiment [6] addresses Cytochrome P450 2D6 (Homo sapiens, UniProt P10635).
Experiment [7] is described as follows: cells.
The subject of experiment [8] is H9c2. The experiment in a line: cells. In kind it is functional, cell-based. The conditions noted are these: Rattus norvegicus, H9c2, Myocardium.
The target of experiment [9] is T2, Rac GTPase-activating protein 1 (Homo sapiens, UniProt Q9H0H5).
T2 sequence (Q9H0H5 whole entry): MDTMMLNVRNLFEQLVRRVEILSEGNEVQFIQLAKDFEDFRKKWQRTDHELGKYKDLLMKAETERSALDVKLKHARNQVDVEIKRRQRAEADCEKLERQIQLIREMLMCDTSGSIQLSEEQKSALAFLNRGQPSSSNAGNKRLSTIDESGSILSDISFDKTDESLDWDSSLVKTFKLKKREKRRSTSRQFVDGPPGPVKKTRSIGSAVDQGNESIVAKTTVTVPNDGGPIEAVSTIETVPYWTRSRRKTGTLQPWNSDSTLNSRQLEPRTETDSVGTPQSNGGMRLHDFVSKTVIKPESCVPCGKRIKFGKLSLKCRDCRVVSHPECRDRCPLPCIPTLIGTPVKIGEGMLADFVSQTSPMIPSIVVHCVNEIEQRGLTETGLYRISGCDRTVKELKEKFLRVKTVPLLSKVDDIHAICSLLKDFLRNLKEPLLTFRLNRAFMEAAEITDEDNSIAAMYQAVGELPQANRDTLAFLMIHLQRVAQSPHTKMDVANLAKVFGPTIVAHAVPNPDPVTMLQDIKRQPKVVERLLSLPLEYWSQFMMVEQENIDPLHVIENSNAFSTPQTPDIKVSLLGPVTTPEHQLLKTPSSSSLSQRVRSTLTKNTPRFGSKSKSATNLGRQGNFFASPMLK
The experiment is described as follows: blockers of MgcRacGAP-driven Rac1 GTP hydrolysis – biochemical, ADP Hunter fluorescence, primary and confirmatory, confirmation (AID 624330). Format: functional.

Experiment [10] has as its target T3, Sentrin-specific protease 8 (Homo sapiens, UniProt Q96LD8).
T3 sequence (Q96LD8 whole entry): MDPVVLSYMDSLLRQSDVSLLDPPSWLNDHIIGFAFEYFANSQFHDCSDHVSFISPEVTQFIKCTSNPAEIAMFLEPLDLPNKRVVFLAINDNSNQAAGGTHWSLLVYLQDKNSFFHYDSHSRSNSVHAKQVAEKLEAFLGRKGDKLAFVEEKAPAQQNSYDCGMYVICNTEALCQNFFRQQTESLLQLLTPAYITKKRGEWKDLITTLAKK
The experiment in a line: inhibition of human SENP8 cleavage activity – biochemical, luminescence, SAR follow-up (AID 504501). Format: functional.

Experiment [11] concerns the target T4, Caspase-3 (Homo sapiens, UniProt P42574).
T4 sequence (P42574 whole entry): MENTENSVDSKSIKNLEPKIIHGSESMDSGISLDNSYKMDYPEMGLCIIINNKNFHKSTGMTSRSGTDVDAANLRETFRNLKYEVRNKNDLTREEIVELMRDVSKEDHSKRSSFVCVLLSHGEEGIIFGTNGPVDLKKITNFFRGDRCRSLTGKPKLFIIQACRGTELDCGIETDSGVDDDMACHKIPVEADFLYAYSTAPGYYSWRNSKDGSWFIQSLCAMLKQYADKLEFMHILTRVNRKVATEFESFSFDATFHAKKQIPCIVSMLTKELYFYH
The experiment in a line: SAR Analysis of small molecule inhibitors of Sentrin-specific proteases (SENPs) using a Caspase-3 Selectivity assay. [Related pubchem assays (depositor defined):AID2540, AID2599, AID434973, AID489001]. Format: functional.

The target in experiment [12] is T5, Sentrin-specific protease 6 (Homo sapiens, UniProt Q9GZR1).
T5 sequence (Q9GZR1 whole entry): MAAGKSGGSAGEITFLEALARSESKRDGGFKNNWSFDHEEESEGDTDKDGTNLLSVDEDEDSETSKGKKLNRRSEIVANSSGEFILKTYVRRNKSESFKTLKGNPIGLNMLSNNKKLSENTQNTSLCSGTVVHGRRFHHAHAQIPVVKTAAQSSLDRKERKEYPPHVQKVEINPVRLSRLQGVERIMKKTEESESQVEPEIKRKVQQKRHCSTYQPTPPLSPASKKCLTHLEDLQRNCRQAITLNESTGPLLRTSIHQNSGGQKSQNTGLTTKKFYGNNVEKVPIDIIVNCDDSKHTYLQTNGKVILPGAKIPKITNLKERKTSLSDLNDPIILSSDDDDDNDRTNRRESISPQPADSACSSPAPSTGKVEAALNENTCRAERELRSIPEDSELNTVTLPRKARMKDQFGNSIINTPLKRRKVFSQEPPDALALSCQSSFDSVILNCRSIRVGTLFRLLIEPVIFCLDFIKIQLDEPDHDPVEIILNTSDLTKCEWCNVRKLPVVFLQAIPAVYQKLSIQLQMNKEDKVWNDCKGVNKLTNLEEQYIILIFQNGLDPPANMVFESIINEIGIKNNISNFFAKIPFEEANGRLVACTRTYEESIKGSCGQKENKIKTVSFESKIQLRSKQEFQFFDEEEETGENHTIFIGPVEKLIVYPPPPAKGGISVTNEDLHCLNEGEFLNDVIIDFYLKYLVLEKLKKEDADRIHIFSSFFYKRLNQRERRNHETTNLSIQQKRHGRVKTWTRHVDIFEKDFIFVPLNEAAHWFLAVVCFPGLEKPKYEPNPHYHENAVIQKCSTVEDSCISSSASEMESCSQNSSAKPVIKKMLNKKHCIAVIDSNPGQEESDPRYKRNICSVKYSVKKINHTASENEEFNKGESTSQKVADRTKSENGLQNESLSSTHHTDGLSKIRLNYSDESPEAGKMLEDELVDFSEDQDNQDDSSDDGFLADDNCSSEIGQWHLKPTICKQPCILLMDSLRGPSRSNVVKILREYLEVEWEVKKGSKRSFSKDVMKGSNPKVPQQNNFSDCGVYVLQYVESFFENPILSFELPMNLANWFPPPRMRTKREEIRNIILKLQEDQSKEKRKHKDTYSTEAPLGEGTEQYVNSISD
The experiment in a line: SAR Analysis of small molecule inhibitors of Sentrin-specific protease 6 (SENP6) using a Luminescent assay. [Related pubchem assays (depositor defined):AID2582, AID2599]. In kind it is functional.

Experiment [13] deals with T6, Sentrin-specific protease 7 (Homo sapiens, UniProt Q9BQF6).
T6 sequence (Q9BQF6 whole entry): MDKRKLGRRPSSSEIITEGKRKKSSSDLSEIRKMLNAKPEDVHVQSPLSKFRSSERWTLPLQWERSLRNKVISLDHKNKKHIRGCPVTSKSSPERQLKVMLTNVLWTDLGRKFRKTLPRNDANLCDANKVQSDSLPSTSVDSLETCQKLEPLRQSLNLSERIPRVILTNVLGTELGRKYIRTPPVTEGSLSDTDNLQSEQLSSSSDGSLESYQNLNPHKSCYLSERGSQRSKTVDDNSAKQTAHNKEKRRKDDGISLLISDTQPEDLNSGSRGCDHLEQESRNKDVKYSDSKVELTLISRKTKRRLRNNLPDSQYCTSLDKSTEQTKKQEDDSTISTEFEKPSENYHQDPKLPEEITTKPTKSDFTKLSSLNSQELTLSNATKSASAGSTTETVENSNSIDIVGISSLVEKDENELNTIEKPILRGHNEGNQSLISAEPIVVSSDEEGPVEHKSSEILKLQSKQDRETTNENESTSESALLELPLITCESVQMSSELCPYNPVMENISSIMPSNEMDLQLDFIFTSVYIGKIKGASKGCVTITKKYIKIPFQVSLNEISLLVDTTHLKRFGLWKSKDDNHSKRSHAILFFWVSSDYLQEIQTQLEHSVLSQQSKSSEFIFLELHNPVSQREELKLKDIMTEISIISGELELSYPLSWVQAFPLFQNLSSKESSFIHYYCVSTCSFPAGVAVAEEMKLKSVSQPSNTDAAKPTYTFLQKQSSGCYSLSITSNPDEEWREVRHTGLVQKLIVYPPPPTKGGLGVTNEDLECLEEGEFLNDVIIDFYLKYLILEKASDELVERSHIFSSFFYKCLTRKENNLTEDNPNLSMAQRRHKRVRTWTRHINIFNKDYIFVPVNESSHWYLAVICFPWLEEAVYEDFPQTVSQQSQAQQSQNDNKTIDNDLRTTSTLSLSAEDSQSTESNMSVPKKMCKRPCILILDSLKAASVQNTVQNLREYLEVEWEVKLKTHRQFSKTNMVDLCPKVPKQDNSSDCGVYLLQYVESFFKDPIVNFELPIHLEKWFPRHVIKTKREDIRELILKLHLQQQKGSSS
The experiment is described as follows: inhibition of human SENP7 cleavage activity – biochemical, luminescence, SAR follow-up (AID 504497). In kind it is functional.

The target in experiment [14] is T3, Sentrin-specific protease 8. The experiment is described as follows: inhibition of sentrin protease 8 – biochemical, luminescence, set 2, SAR follow-up (AID 588601). In kind it is functional.
Experiment [15] concerns the target T6, Sentrin-specific protease 7. The experiment is described as follows: inhibition of human SENP7 cleavage activity – biochemical, luminescence, set 2, SAR follow-up (AID 588600). In kind it is functional.
The target of experiment [16] is T5, Sentrin-specific protease 6. The experiment in a line: inhibition of human SENP6 catalytic domain – biochemical, luminescence, set 2, SAR follow-up (AID 588598). Format: functional.

Several values for one entry are separate records, joined by “and”; a condition that tells them apart may be missing. Equal entries are not always repeated. Activity calls are given as the source filed them. A value given as a limit tells only on which side of the number the result lay.
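Wherever AC50 is given: CYP2D6 member of a cytochrome P450 panel assay.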

Chain of Melanin-concentrating hormone receptor 1 (Q99705 whole entry): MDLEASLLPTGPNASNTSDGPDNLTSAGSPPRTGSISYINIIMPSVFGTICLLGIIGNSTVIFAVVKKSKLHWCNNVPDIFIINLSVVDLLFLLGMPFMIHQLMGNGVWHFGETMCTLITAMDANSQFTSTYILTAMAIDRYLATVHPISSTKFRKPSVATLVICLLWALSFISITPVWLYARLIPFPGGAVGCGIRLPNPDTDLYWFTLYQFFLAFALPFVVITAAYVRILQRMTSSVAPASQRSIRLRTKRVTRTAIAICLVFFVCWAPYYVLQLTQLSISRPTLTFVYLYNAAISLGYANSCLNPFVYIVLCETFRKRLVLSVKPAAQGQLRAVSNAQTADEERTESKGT
Chain of Melanocortin receptor 4 (P32245 whole entry): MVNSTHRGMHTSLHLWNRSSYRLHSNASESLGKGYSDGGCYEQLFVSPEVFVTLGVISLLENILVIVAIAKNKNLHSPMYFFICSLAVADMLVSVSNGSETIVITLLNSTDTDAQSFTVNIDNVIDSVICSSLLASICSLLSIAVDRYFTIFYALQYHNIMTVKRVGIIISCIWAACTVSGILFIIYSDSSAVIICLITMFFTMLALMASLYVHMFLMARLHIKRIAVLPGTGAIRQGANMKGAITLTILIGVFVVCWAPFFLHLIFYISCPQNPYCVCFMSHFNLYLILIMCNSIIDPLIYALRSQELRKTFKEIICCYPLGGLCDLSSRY
Chain of Cytochrome P450 2D6 (P10635 whole entry): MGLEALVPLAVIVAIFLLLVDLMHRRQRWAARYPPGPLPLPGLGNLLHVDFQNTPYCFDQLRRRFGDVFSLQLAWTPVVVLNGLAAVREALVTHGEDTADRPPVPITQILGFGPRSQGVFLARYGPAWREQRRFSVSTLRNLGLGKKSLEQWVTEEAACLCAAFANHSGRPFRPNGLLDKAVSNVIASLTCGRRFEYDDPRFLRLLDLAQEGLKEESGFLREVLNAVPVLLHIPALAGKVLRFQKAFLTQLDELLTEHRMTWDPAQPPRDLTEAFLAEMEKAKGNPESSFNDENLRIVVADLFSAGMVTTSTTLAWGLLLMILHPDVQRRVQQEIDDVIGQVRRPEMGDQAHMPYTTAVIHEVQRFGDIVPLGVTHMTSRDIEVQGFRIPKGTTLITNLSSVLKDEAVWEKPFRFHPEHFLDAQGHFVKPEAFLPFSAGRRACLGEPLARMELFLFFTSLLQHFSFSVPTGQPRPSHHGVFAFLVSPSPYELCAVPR

As a reminder, the IC50 is the point on the concentration scale where inhibition reaches its midpoint. Regarding `N#Cc1cccc(C(C#N)c2c(Cl)cnn(Cc3cccc4ccccc34)c2=O)c1` (stereo not drawn), the IC50 in experiment [1] and in [2] was 553 nM (active) throughout.

What is called CC50 is the concentration that lowers cell viability or growth by half. What is called AC50 is the concentration giving half of the maximal activity seen. With `COc1ccc(OC)c(C2C3=C(O)CCCC3=NC(C)=C2C(=O)Nc2nc3ccccc3s2)c1` (stereo not drawn), the CC50 in experiment [3] was 23.1 µM (active). In addition, the IC50 in experiment [4] is 12.6 µM (inactive); in experiment [5], > 64.6 µM (inactive); in experiment [7], 9.83 µM (active). Besides, in [6], the AC50 was 22.4 µM (inconclusive).

On to `CCN(C[C@H]1N[C@@](CC)(C(=O)OC)[C@H]2C(=O)N(Cc3ccccc3)C(=O)[C@@H]12)C(=O)c1ccc(C(C)(C)C)cc1`, for which the values for the IC50 in experiment [8], in experiment [4] and in experiment [5] were > 79 µM (inactive), > 64.6 µM (inactive) and > 64.6 µM (inactive), respectively.

For the compound `CCOC(=O)c1sc(S)nc1C`, the IC50 in experiment [4] is 18.2 µM (inactive); in experiment [5], 44.7 µM (inactive); in experiment [9], 50 µM (active).

For the compound `CCn1ccc2ccc(Oc3c(Cl)cnn(Cc4cccc5ccccc45)c3=O)cc21`, the IC50 in experiment [1] and in experiment [2] was > 20000 nM (inactive) each time.

Regarding `CC(C)c1ccc(C(C#N)c2c(Cl)cnn(Cc3cccc4ccccc34)c2=O)cc1` (stereo not drawn), the concentration for half-maximal inhibition (IC50) in experiment [1] is 253 nM (active) and 1.62 µM (active); in experiment [2] it was 253 nM (active) and 1.62 µM (active).

`O=C(Nc1ccc(-c2noc(/C=C/c3ccccc3)n2)cc1)c1ccc(Br)o1`: the IC50 in [10], in experiment [11], in experiment [12] and in experiment [13] was > 99 µM (inactive) each time.

For the compound `CCCCc1ccc2nc(NC(=O)c3sccc3Cl)sc2c1`, the 50% inhibitory concentration (IC50) is 0.99 µM (active) in [10]; 1.06 µM (active) in experiment [14]; 1.1 µM (active) in experiment [11]; 1.16 µM (active) in experiment [15]; 0.97 µM (active) in experiment [12]; 1.15 µM (active) in experiment [16]. In addition, the IC50 in experiment [13] was 0.96 µM (active).
